The subject of this assay is MOLM-13 cells. Kind of assay: MOLM-13 Cell Proliferation Assay (indicator of DHODH inhibition). Type of assay: cell-based. Conditions: Homo sapiens, 72 Hours of culture, CellTiter-Glo, no uridine. An outline of the steps: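 Proliferation readout via CellTiter-Glo luminescence after 72 h compound treatment (37 °C, 5% CO2, 0.5% DMSO) of MOLM-13 cells seeded at 10^4 per well in RPMI 1640/10% FBS, used as a DHODH-inhibition indicator since these cells rely on de novo pyrimidine synthesis.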
On the technique in general: Cellular ATP, detected with luciferase, serves as a proxy for viable cell number.

By IC50 is commonly meant the midpoint of a concentration-inhibition curve. Consider `Cc1ccc(C2c3[nH]c4ccc(C)c(F)c4c3CCN2c2nccc(C(F)(F)F)n2)c(F)c1F` (centres unmarked) [Compound 192, 1-(2,3-difluoro-4-methylphenyl)-5-fluoro-6-methyl-2-[4-(trifluoromethyl)pyrimidin-2-yl]-2,3,4,9-tetrahydro-1H-pyrido[3,4-b]indole], for which the concentration for half-maximal inhibition (IC50) turned out to be 2 nM. This counts as single-digit nanomolar. As for `Cc1cc(C(F)(F)F)nc(N2CCc3c([nH]c4cc(F)c(Cl)cc34)C2c2ccc(C#N)cc2)n1` (centres unmarked) [Compound 88, 4-{6-chloro-7-fluoro-2-[4-methyl-6-(trifluoromethyl)pyrimidin-2-yl]-2,3,4,9-tetrahydro-1H-pyrido[3,4-b]indol-1-yl}benzonitrile], the figure is 2.3 nM; as for `Cc1cc(C(F)(F)F)nc(N2CCc3c([nH]c4ccc(Cl)c(F)c34)C2c2ccc(C)c(F)c2F)n1` (centres unmarked) [Compound 206, 6-chloro-1-(2,3-difluoro-4-methylphenyl)-5-fluoro-2-[4-methyl-6-(trifluoromethyl)pyrimidin-2-yl]-2,3,4,9-tetrahydro-1H-pyrido[3,4-b]indole], 0.4 nM.

`N#Cc1ccc(C2c3[nH]c4ccc(Cl)c(F)c4c3CCN2c2ncc(F)cn2)cc1` (centres unmarked) [Compound 56, 4-[6-chloro-5-fluoro-2-(5-fluoropyrimidin-2-yl)-2,3,4,9-tetrahydro-1H-pyrido[3,4-b]indol-1-yl]benzonitrile] registered an IC50 of 25.7 nM. As for `COC(=O)c1ccnc(N2CCc3c([nH]c4ccc(Cl)c(F)c34)C2c2ccc(Cl)cc2)n1` (centres unmarked) [Compound 87, methyl 2-[6-chloro-1-(4-chlorophenyl)-5-fluoro-1,3,4,9-tetrahydro-2H-pyrido[3,4-b]indol-2-yl]pyrimidine-4-carboxylate], the figure is 7.9 nM; as for `Cc1nc(C)nc(N2CCc3c([nH]c4ccc(Cl)c(N)c34)C2c2cnc(N3CCOCC3)nc2)n1` (centres unmarked) [Compound 327, 6-chloro-2-(4,6-dimethyl-1,3,5-triazin-2-yl)-1-[2-(morpholin-4-yl)pyrimidin-5-yl]-2,3,4,9-tetrahydro-1H-pyrido[3,4-b]indol-5-amine], 31.9 nM.

In turn, `Cc1ccc(C2c3[nH]c4ccc(Cl)c(F)c4c3CCN2c2ncc(F)c(C)n2)cc1` (centres unmarked) [Compound 109, 6-chloro-5-fluoro-2-(5-fluoro-4-methylpyrimidin-2-yl)-1-(4-methylphenyl)-2,3,4,9-tetrahydro-1H-pyrido[3,4-b]indole] came in with an IC50 of 5.6 nM. As for `Fc1cc(Cl)ccc1C1c2[nH]c3ccc(Cl)cc3c2CCN1c1nccc(C(F)(F)F)n1` (centres unmarked) [Compound 267, 6-chloro-1-(4-chloro-2-fluorophenyl)-2-[4-(trifluoromethyl)pyrimidin-2-yl]-2,3,4,9-tetrahydro-1H-pyrido[3,4-b]indole], the figure is 2.7 nM.

Regarding `Fc1cc2[nH]c3c(c2cc1Cl)CCN(c1nccc(Cl)n1)C3c1cccc(F)c1F` (centres unmarked) [Compound 77, 6-chloro-2-(4-chloropyrimidin-2-yl)-1-(2,3-difluorophenyl)-7-fluoro-2,3,4,9-tetrahydro-1H-pyrido[3,4-b]indole], half-maximal inhibition (IC50) was put at 7.4 nM. As for `Cc1nc(N2CCOCC2)nc(N2CCc3c([nH]c4ccc(Cl)cc34)C2c2cnc(N3CCOCC3)nc2)n1` (centres unmarked) [Compound 296, 6-chloro-2-[4-methyl-6-(morpholin-4-yl)-1,3,5-triazin-2-yl]-1-[2-(morpholin-4-yl)pyrimidin-5-yl]-2,3,4,9-tetrahydro-1H-pyrido[3,4-b]indole], the figure is 16.2 nM; as for `CSc1nc(N2CCc3c([nH]c4ccc(Cl)cc34)[C@@H]2c2ccc(N3CCN(C)CC3)nc2)nc(C(F)(F)F)n1` [Compound 489, (1S)-6-chloro-1-[6-(4-methylpiperazin-1-yl)pyridin-3-yl]-2-[4-(methylsulfanyl)-6-(trifluoromethyl)-1,3,5-triazin-2-yl]-2,3,4,9-tetrahydro-1H-pyrido[3,4-b]indole], 1.6 nM; as for `FC(F)(F)c1ccnc(N2CCc3c([nH]c4ccc(Cl)c(Br)c34)C2c2ccc(Cl)cc2)n1` (centres unmarked) [Compound 247, 5-bromo-6-chloro-1-(4-chlorophenyl)-2-[4-(trifluoromethyl)pyrimidin-2-yl]-2,3,4,9-tetrahydro-1H-pyrido[3,4-b]indole], 1.8 nM. The compound `OCC/C=C/c1ccc(C2c3[nH]c4cc(F)c(Cl)cc4c3CCN2c2nccc(C(F)(F)F)n2)cc1` (centres unmarked) [Compound 167, (3E)-4-(4-{6-chloro-7-fluoro-2-[4-(trifluoromethyl)pyrimidin-2-yl]-2,3,4,9-tetrahydro-1H-pyrido[3,4-b]indol-1-yl}phenyl)but-3-en-1-ol] returned an IC50 of 1.1 nM. Consider `Cc1ccc([C@H]2c3[nH]c4ccc(Cl)cc4c3CCN2c2nc(C)nc(C#N)n2)cc1` [Compound 411, 4-[(1S)-6-chloro-1-(4-methylphenyl)-1,3,4,9-tetrahydro-2H-pyrido[3,4-b]indol-2-yl]-6-methyl-1,3,5-triazine-2-carbonitrile], for which the IC50 stood at 3.7 nM. As for `Cc1nc(C)nc(N2CCc3c([nH]c4ccc(Cl)cc34)C2c2ccc(C#N)cc2F)n1` (centres unmarked) [Compound 453, 4-[6-chloro-2-(4,6-dimethyl-1,3,5-triazin-2-yl)-2,3,4,9-tetrahydro-1H-pyrido[3,4-b]indol-1-yl]-3-fluorobenzonitrile], the figure is 4.9 nM; as for `FC(F)(F)c1ccnc(N2CCc3c([nH]c4ccc(Cl)cc34)C2c2cnc(N3CCOCC3)nc2)n1` (centres unmarked) [Compound 251, 6-chloro-1-[2-(morpholin-4-yl)pyrimidin-5-yl]-2-[4-(trifluoromethyl)pyrimidin-2-yl]-2,3,4,9-tetrahydro-1H-pyrido[3,4-b]indole], 2 nM; as for `Cc1ccc(C2c3[nH]c4cc(F)c(Cl)cc4c3CCN2c2nccc(C#N)n2)cc1` (centres unmarked) [Compound 44, 2-[6-chloro-7-fluoro-1-(4-methylphenyl)-1,3,4,9-tetrahydro-2H-pyrido[3,4-b]indol-2-yl]pyrimidine-4-carbonitrile], 14.7 nM. For the compound `FC(F)(F)c1ccnc(N2CCc3c([nH]c4ccc(Br)cc34)C2c2cnc(N3CCOCC3)nc2)n1` (centres unmarked) [Compound 298, 6-bromo-1-[2-(morpholin-4-yl)pyrimidin-5-yl]-2-[4-(trifluoromethyl)pyrimidin-2-yl]-2,3,4,9-tetrahydro-1H-pyrido[3,4-b]indole], the IC50 came to 1.2 nM. `Cc1cnc(N2CCc3c([nH]c4cc(F)c(Cl)cc34)C2c2ccc(C)c(F)c2F)nc1` (centres unmarked) [Compound 136, 6-chloro-1-(2,3-difluoro-4-methylphenyl)-7-fluoro-2-(5-methylpyrimidin-2-yl)-2,3,4,9-tetrahydro-1H-pyrido[3,4-b]indole] yielded an IC50 of 7.5 nM. For `Cc1nc(N2CC(F)(F)C2)nc(N2CCc3c([nH]c4ccc(Cl)cc34)[C@@H]2c2cnc(N3CCOCC3)nc2)n1` [Compound 457, (1S)-6-chloro-2-[4-(3,3-difluoroazetidin-1-yl)-6-methyl-1,3,5-triazin-2-yl]-1-[2-(morpholin-4-yl)pyrimidin-5-yl]-2,3,4,9-tetrahydro-1H-pyrido[3,4-b]indole], half-maximal inhibition (IC50) was put at 5.8 nM. `Cc1ccc(C2c3[nH]c4ccc(Cl)cc4c3CCN2c2nncc(C(F)(F)F)n2)c(F)c1F` (centres unmarked) [Compound 403, 6-chloro-1-(2,3-difluoro-4-methylphenyl)-2-[5-(trifluoromethyl)-1,2,4-triazin-3-yl]-2,3,4,9-tetrahydro-1H-pyrido[3,4-b]indole] yielded an IC50 of 0.7 nM.

On to `Cc1ccc(C2c3[nH]c4ccc(Cl)c(F)c4c3CCN2c2nc(C#N)cc(C#N)n2)cc1` (centres unmarked) [Compound 228, 2-[6-chloro-5-fluoro-1-(4-methylphenyl)-1,3,4,9-tetrahydro-2H-pyrido[3,4-b]indol-2-yl]pyrimidine-4,6-dicarbonitrile], for which half-maximal inhibition (IC50) was put at 4.4 nM. As to `Oc1ccccc1C1c2[nH]c3ccc(Cl)cc3c2CCN1c1nccc(C(F)(F)F)n1` (centres unmarked) [Compound 353, 2-{6-chloro-2-[4-(trifluoromethyl)pyrimidin-2-yl]-2,3,4,9-tetrahydro-1H-pyrido[3,4-b]indol-1-yl}phenol], the IC50 amounted to 5.7 nM. Then `OCc1ccc(C2c3[nH]c4cc(F)c(Cl)cc4c3CCN2c2ncc(F)cn2)cc1` (centres unmarked) [Compound 78, {4-[6-chloro-7-fluoro-2-(5-fluoropyrimidin-2-yl)-2,3,4,9-tetrahydro-1H-pyrido[3,4-b]indol-1-yl]phenyl}methanol], with 46.9 nM; and `COc1ccc(C2c3[nH]c4ccc(Cl)cc4c3CCN2c2nccc(C(F)(F)F)n2)c(F)c1F` (centres unmarked) [Compound 120, 6-chloro-1-(2,3-difluoro-4-methoxyphenyl)-2-[4-(trifluoromethyl)pyrimidin-2-yl]-2,3,4,9-tetrahydro-1H-pyrido[3,4-b]indole], with 3.7 nM. As for `Cc1ccc([C@H]2c3[nH]c4ccc(Cl)cc4c3CCN2c2nc(C)c(F)c(C#N)n2)c(F)c1F` [Compound 413, 2-[(1S)-6-chloro-1-(2,3-difluoro-4-methylphenyl)-1,3,4,9-tetrahydro-2H-pyrido[3,4-b]indol-2-yl]-5-fluoro-6-methylpyrimidine-4-carbonitrile], the figure is 0.8 nM; as for `CCCCOC(=O)c1ccnc(N2CCc3c([nH]c4ccc(Cl)cc34)C2c2ccc(C)c(F)c2F)n1` (centres unmarked) [Compound 281, butyl 2-[6-chloro-1-(2,3-difluoro-4-methylphenyl)-1,3,4,9-tetrahydro-2H-pyrido[3,4-b]indol-2-yl]pyrimidine-4-carboxylate], 1.4 nM; as for `Cc1ccc(C2c3[nH]c4ccc(Cl)c([N+](=O)[O-])c4c3CCN2c2nccc(C(F)(F)F)n2)c(F)c1F` (centres unmarked) [Compound 266, 6-chloro-1-(2,3-difluoro-4-methylphenyl)-5-nitro-2-[4-(trifluoromethyl)pyrimidin-2-yl]-2,3,4,9-tetrahydro-1H-pyrido[3,4-b]indole], 1.3 nM. For `Cc1ccc(C2c3[nH]c4cc(F)c(Cl)cc4c3CCN2c2ncc(F)c(C#N)n2)c(F)c1F` (centres unmarked) [Compound 162, 2-[6-chloro-1-(2,3-difluoro-4-methylphenyl)-7-fluoro-1,3,4,9-tetrahydro-2H-pyrido[3,4-b]indol-2-yl]-5-fluoropyrimidine-4-carbonitrile], the IC50 is 2.4 nM.

The record behind these values is US20250186437A1, “CARBOLINE COMPOUNDS AND USE THEREOF” (PTC Therapeutics, Inc., priority 2021, published 2025).
